The source made the active and inactive calls. The rule behind the calls is not given here.

Among the data in PubChem BioAssay AID489026 (Sanford-Burnham Center for Chemical Genomics, 2010) are IC50 values, retold here.

The test relates to HEK-293T cytotoxicity, luminescence viability. Nature of the test: cytotoxicity in HEK-293T cells, dose response, cytotoxicity control, luminescence, T-cell screen hits (AID 489026).

`C=C(C=O)C[C@@H]1C[C@H](O)C2OC3C[C@]4(C)OC5/C=C\CC6OC7C(CC=CCC6OC5CCCC4OC3CC2O1)OC1CC2OC3CC(=O)OC3C[C@@H](C)C[C@@]2(C)OC1C[C@@H]7C` (some centres not stated): the IC50 is 39.8 µM (inactive).
For the compound `C[C@@H]1O[C@@H](O[C@H]2C[C@@H](O)[C@]3(CO)[C@@H]4C(CC[C@]3(O)C2)[C@@]2(O)CC[C@H](C3COC(=O)C3)[C@@]2(C)C[C@H]4O)[C@H](O)[C@H](O)[C@H]1O` (some centres not stated), the IC50 is > 80 µM (inactive).
